Assay results reported in ChEMBL document CHEMBL1201862, “PubChem BioAssay data set” (2004).
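Dose response: 5 concentrations. Exposure: 48 h. Format: 96-well plates. Endpoint: linear interpolation; highest concentration if not reached. GI50 is the concentration that inhibits growth by half.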 Activity calls are given as the source filed them. Rule as the data show it: active = GI50 up to about 1.1 µM and inactive = higher.

Tests used:
Experiment in all cases: inhibition of tumour cell growth, NCI panel, 48 h
HT-29 = system: HT-29
Hs-578T = system: Hs-578T
HCC 2998 = system: HCC 2998
TK-10 = system: TK-10
NCI-H460 = system: NCI-H460
SNB-19 = system: SNB-19
EKVX = system: EKVX
U-251 = system: U-251
NCI-H23 = system: NCI-H23
HCT-15 = system: HCT-15
NCI-H226 = system: NCI-H226
T47D = system: T47D
SF-295 = system: SF-295
COLO 205 = system: COLO 205
MDA-MB-435 = system: MDA-MB-435
CAKI-1 = system: CAKI-1
SK-MEL-2 = system: SK-MEL-2
NCI/ADR-RES = system: NCI/ADR-RES
NCI-H522 = system: NCI-H522
HOP-62 = system: HOP-62

Compound: CC(C)(C)C1=C(Br)C(C(C)(C)C)OP1(=O)O (stereo not given)
- GI50 (HT-29): > 100 µM (inactive)
- GI50 (Hs-578T): > 100 µM (inactive)
- GI50 (HCC 2998): > 100 µM (inactive)
- GI50 (TK-10): > 100 µM (inactive)
- GI50 (NCI-H460): > 100 µM (inactive)
- GI50 (SNB-19): > 100 µM (inactive)
- GI50 (EKVX): > 100 µM (inactive)
- GI50 (U-251): > 100 µM (inactive)
- GI50 (NCI-H23): > 100 µM (inactive)
- GI50 (HCT-15): > 100 µM
- GI50 (NCI-H226): > 100 µM (inactive)
- GI50 (T47D): > 100 µM (inactive)
- GI50 (SF-295): > 100 µM (inactive)
- GI50 (COLO 205): > 100 µM (inactive)
- GI50 (MDA-MB-435): > 100 µM (inactive)
- GI50 (CAKI-1): > 100 µM (inactive)
- GI50 (SK-MEL-2): > 100 µM (inactive)
- GI50 (NCI/ADR-RES): > 100 µM (inactive)
- GI50 (NCI-H522): > 100 µM (inactive)
- GI50 (HOP-62): > 100 µM (inactive)

Compound: C=C1C(=O)O[C@@H]2CC(CO)=C([C@@H](C)CCCO)[C@@H](OC(=O)/C(C)=C\C)[C@H]12
- GI50 (HT-29): 12.9 µM (inactive)
- GI50 (Hs-578T): 21.1 µM (inactive)
- GI50 (HCC 2998): 15.3 µM (inactive)
- GI50 (TK-10): 18.8 µM (inactive)
- GI50 (NCI-H460): 9.98 µM (inactive)
- GI50 (SNB-19): 20.1 µM (inactive)
- GI50 (EKVX): 13.7 µM (inactive)
- GI50 (U-251): 15 µM (inactive)
- GI50 (NCI-H23): 13.3 µM (inactive)
- GI50 (HCT-15): 13.7 µM
- GI50 (NCI-H226): 28.4 µM (inactive)
- GI50 (T47D): 10.4 µM (inactive)
- GI50 (SF-295): 16.9 µM (inactive)
- GI50 (COLO 205): 14.5 µM (inactive)
- GI50 (MDA-MB-435): 15.8 µM (inactive)
- GI50 (CAKI-1): 22.1 µM (inactive)
- GI50 (SK-MEL-2): 20.9 µM (inactive)
- GI50 (NCI/ADR-RES): 20.2 µM (inactive)
- GI50 (NCI-H522): 2.62 µM (inactive)
- GI50 (HOP-62): 34.9 µM (inactive)

Compound: O=C(/C=C/c1cccc(Oc2ccccc2)c1)NCc1ccc(C(=O)NCCc2ccccc2)cc1
- GI50 (HT-29): 16.9 µM (inactive)
- GI50 (Hs-578T): > 100 µM (inactive)
- GI50 (HCC 2998): > 100 µM (inactive)
- GI50 (TK-10): > 100 µM (inactive)
- GI50 (NCI-H460): > 100 µM (inactive)
- GI50 (SNB-19): 29.9 µM (inactive)
- GI50 (EKVX): > 100 µM (inactive)
- GI50 (U-251): 35 µM (inactive)
- GI50 (NCI-H23): 43.7 µM (inactive)
- GI50 (HCT-15): > 100 µM
- GI50 (NCI-H226): > 100 µM (inactive)
- GI50 (T47D): > 100 µM (inactive)
- GI50 (SF-295): > 100 µM (inactive)
- GI50 (COLO 205): > 100 µM (inactive)
- GI50 (MDA-MB-435): > 100 µM (inactive)
- GI50 (CAKI-1): > 100 µM (inactive)
- GI50 (SK-MEL-2): > 100 µM (inactive)
- GI50 (NCI/ADR-RES): > 100 µM (inactive)
- GI50 (NCI-H522): 75 µM (inactive)
- GI50 (HOP-62): 27.2 µM (inactive)

Compound: CCC(C#N)NC(=O)NC(C#N)CC (stereo not given)
- GI50 (HT-29): > 100 µM (inactive)
- GI50 (Hs-578T): > 100 µM (inactive)
- GI50 (HCC 2998): > 100 µM (inactive)
- GI50 (TK-10): > 100 µM (inactive)
- GI50 (NCI-H460): > 100 µM (inactive)
- GI50 (SNB-19): > 100 µM (inactive)
- GI50 (EKVX): > 100 µM (inactive)
- GI50 (U-251): > 100 µM (inactive)
- GI50 (NCI-H23): > 100 µM (inactive)
- GI50 (HCT-15): > 100 µM
- GI50 (NCI-H226): > 100 µM (inactive)
- GI50 (T47D): > 100 µM (inactive)
- GI50 (SF-295): > 100 µM (inactive)
- GI50 (COLO 205): > 100 µM (inactive)
- GI50 (MDA-MB-435): > 100 µM (inactive)
- GI50 (CAKI-1): > 100 µM (inactive)
- GI50 (SK-MEL-2): > 100 µM (inactive)
- GI50 (NCI/ADR-RES): > 100 µM (inactive)
- GI50 (NCI-H522): > 100 µM (inactive)
- GI50 (HOP-62): > 100 µM (inactive)

Compound: Cc1cc(/N=C/c2ccc(C#N)cc2)n(-c2ccccc2)n1
- GI50 (HT-29): 47.8 µM (inactive)
- GI50 (Hs-578T): 44.2 µM (inactive)
- GI50 (HCC 2998): > 100 µM (inactive)
- GI50 (TK-10): > 100 µM (inactive)
- GI50 (NCI-H460): > 100 µM (inactive)
- GI50 (SNB-19): 65.8 µM (inactive)
- GI50 (EKVX): 94.8 µM (inactive)
- GI50 (U-251): 71.6 µM (inactive)
- GI50 (NCI-H23): 56.1 µM (inactive)
- GI50 (HCT-15): 50.8 µM
- GI50 (NCI-H226): > 100 µM (inactive)
- GI50 (T47D): 48.9 µM (inactive)
- GI50 (SF-295): 81.7 µM (inactive)
- GI50 (COLO 205): 31.3 µM (inactive)
- GI50 (MDA-MB-435): 37 µM (inactive)
- GI50 (CAKI-1): > 100 µM (inactive)
- GI50 (SK-MEL-2): > 100 µM (inactive)
- GI50 (NCI/ADR-RES): 65.8 µM (inactive)
- GI50 (NCI-H522): 72.4 µM (inactive)
- GI50 (HOP-62): 68.9 µM (inactive)

Compound: C=C1C(=O)O[C@H]2C3C(=C(C)CC[C@@H]12)C(=O)[C@@H]1OC31C (stereo not given in full)
- GI50 (HT-29): 1.66 µM (inactive)
- GI50 (Hs-578T): 3.03 µM (inactive)
- GI50 (HCC 2998): 14.7 µM (inactive)
- GI50 (TK-10): 2.27 µM (inactive)
- GI50 (NCI-H460): 10.1 µM (inactive)
- GI50 (SNB-19): 15.8 µM (inactive)
- GI50 (EKVX): 14.4 µM (inactive)
- GI50 (U-251): 13.4 µM (inactive)
- GI50 (NCI-H23): 2.21 µM (inactive)
- GI50 (HCT-15): 1.66 µM
- GI50 (NCI-H226): 7.48 µM (inactive)
- GI50 (T47D): 1.81 µM (inactive)
- GI50 (SF-295): 14 µM (inactive)
- GI50 (COLO 205): 1.2 µM (inactive)
- GI50 (MDA-MB-435): 2.72 µM (inactive)
- GI50 (CAKI-1): 2.67 µM (inactive)
- GI50 (SK-MEL-2): 4.48 µM (inactive)
- GI50 (NCI/ADR-RES): 3.13 µM (inactive)
- GI50 (NCI-H522): 1.53 µM (inactive)
- GI50 (HOP-62): 14.8 µM (inactive)

Compound: Nc1[nH]c(Nc2ccc(Cl)c(Cl)c2)nc2ncnc1-2
- GI50 (HT-29): 14.7 µM (inactive)
- GI50 (Hs-578T): 5.87 µM (inactive)
- GI50 (HCC 2998): 14.4 µM (inactive)
- GI50 (TK-10): 13.2 µM (inactive)
- GI50 (NCI-H460): 15.5 µM (inactive)
- GI50 (SNB-19): 14.1 µM (inactive)
- GI50 (EKVX): 1.98 µM (inactive)
- GI50 (U-251): 15.2 µM (inactive)
- GI50 (NCI-H23): 18.3 µM (inactive)
- GI50 (HCT-15): 15.3 µM
- GI50 (NCI-H226): 20.6 µM (inactive)
- GI50 (T47D): 8.55 µM (inactive)
- GI50 (SF-295): 17.5 µM (inactive)
- GI50 (COLO 205): 20.7 µM (inactive)
- GI50 (MDA-MB-435): 16.6 µM (inactive)
- GI50 (CAKI-1): 10.8 µM (inactive)
- GI50 (SK-MEL-2): 17.5 µM (inactive)
- GI50 (NCI/ADR-RES): 15.9 µM (inactive)
- GI50 (NCI-H522): 15.3 µM (inactive)
- GI50 (HOP-62): 12.9 µM (inactive)
